Measured values: US10478157B2, “Methods for drug delivery” (Presage Biosciences, Inc., priority 2011, dated 2019)

Tested on: mouse xenograft of Human Lymphoma Ramos cell line
Assay: Vincristine delivered through a microdialysis probe into a solid tumor; Cleaved Caspase 3 / DAPI staining
Assay type: in vivo
Details: intratumoral delivery by microdialysis probe; Cleaved Caspase 3 Fluorophore 555 for cell death, DAPI nuclear stain; FIG. 13
Text: FIGS. 13a and 13b show drug delivered through microdialysis probe induces spatially restricted drug specific tumor cell death embodying principles of the present invention.
Little or no evidence of tissue disruption due to insertion was observed. The membrane maintained its integrity through insertion and tissue processing, including microtome sectioning. The solid tumor is a mouse xenograft of Human Lymphoma Ramos cell line. The biomarkers are DAPI for nuclear stain and Cleaved Caspase 3 Fluorophore 555 for cell death in response to Vincristine as delivery agent.

CC[C@]1(O)C[C@H]2CN(CCc3c([nH]c4ccccc34)[C@@](C(=O)OC)(c3cc4c(cc3OC)N(C=O)[C@H]3[C@@](O)(C(=O)OC)[C@H](OC(C)=O)[C@]5(CC)C=CCN6CC[C@]43[C@@H]65)C2)C1 [Vincristine]
triggered cellular response (Cleaved Caspase 3 biomarker for cell death) around the delivery axis: clear manifestation of triggered cellular response
